Data on one compound can be found in patent publication US6541638B2, “Pyrrolidine derivatives” (Hoffman-La Roche Inc., priority 2000, dated 2003).

For `O=C([C@@H]1C[C@@H](S)CN1S(=O)(=O)c1ccc2ccccc2c1)N(CCc1nnn[nH]1)C1CC1`, the melting point is 173.5 °C (dec.).
